ChEMBL document CHEMBL4680207, “The discovery, design and synthesis of potent agonists of adenylyl cyclase type 2 by virtual screening combining biological evaluation” (Eur J Med Chem, 2020)

Experiments:
[1] = biological target: T1, Adenylate cyclase type 2 (Homo sapiens, UniProt Q08462); assay: Agonist activity at recombinant human AC2 expressed in HEK293 cells assessed as increase in cAMP level measured after 30 mins by LANCE Ultra cAMP Detection kit method; format: cell-based
[2] = biological target: T1, Adenylate cyclase type 2; assay: Agonist activity at recombinant human AC2 expressed in HEK293 cells assessed as increase in cAMP level by measuring cAMP level at 50 uM measured after 30 mins by LANCE Ultra cAMP Detection kit method relative to control; format: cell-based

T1 sequence (Q08462 whole entry): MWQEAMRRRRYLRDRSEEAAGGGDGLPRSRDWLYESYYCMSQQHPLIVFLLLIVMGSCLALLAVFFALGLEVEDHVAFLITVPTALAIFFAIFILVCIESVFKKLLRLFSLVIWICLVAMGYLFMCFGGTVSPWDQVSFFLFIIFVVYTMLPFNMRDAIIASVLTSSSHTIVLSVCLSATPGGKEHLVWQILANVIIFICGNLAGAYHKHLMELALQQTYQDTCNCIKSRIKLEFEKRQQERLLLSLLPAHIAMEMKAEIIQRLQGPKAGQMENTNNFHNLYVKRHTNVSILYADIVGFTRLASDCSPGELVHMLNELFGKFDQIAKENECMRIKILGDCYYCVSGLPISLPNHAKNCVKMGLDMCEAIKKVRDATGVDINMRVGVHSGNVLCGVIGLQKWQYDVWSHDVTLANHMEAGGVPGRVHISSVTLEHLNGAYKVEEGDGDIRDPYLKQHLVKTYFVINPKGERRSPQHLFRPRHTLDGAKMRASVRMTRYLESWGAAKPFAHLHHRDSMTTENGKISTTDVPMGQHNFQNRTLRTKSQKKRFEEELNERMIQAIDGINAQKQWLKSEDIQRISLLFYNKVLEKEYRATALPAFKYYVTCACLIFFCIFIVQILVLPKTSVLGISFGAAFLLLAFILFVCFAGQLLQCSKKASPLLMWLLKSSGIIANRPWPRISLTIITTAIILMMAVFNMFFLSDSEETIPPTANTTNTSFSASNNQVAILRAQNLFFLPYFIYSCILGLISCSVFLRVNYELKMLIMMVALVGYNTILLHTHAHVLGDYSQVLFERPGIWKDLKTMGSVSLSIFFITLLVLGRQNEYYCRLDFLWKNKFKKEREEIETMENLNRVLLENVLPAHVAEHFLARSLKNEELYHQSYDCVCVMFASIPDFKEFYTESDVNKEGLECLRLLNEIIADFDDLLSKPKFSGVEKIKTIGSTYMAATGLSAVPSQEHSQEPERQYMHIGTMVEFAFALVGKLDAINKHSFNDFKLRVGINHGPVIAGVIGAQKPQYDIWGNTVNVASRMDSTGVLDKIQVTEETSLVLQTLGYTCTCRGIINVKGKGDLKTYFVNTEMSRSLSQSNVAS

| SMILES | EC50 [1] [µM] | Activity ([2]; filed as agonist) [%] | Activity [2] [%] |
| --- | --- | --- | --- |
| Cc1ccc([C@H]2OC3(C(=O)c4ccccc4C3=O)[C@H]3C(=O)N(c4ccc(F)c(Cl)c4)C(=O)[C@@H]23)cc1 | 0.52 | 103 | – |
| Cc1ccc([C@H]2OC3(C(=O)c4ccccc4C3=O)[C@H]3C(=O)N(C)C(=O)[C@@H]23)cc1 | 3.08 | 62 | – |
| CC[C@H]1OC2(C(=O)c3ccccc3C2=O)[C@H]2C(=O)N(c3ccccc3Cl)C(=O)[C@@H]12 | – | – | 0 |
| Cc1cc(C)cc(N2C(=O)[C@H]3[C@@H](c4ccc(Cl)cc4)OC4(C(=O)c5ccccc5C4=O)[C@H]3C2=O)c1 | 0.31 | 96.9 | – |
| COc1ccc(OC)c(N2C(=O)[C@H]3[C@@H](c4ccc(C)cc4)OC4(C(=O)c5ccccc5C4=O)[C@H]3C2=O)c1 | 1.2 | 103 | – |
| CCC[C@H]1OC2(C(=O)c3ccccc3C2=O)[C@H]2C(=O)N(c3ccccc3Cl)C(=O)[C@@H]12 | 4.29 | 59.6 | – |
| Cc1ccc([C@H]2OC3(C(=O)c4cccc(F)c4C3=O)[C@H]3C(=O)N(c4ccccc4Cl)C(=O)[C@@H]23)cc1 (mixture of isomers) | 0.345 | 59.1 | – |
| Cc1ccc([C@H]2OC3(C(=O)c4ccccc4C3=O)[C@H]3C(=O)N(C4CC4)C(=O)[C@@H]23)cc1 | 3.37 | 70.8 | – |
| Cc1ccc([C@H]2OC3(C(=O)c4ccccc4C3=O)[C@H]3C(=O)N(CC(C)C)C(=O)[C@@H]23)cc1 | – | 56.7 | – |
| CCOc1ccc(N2C(=O)[C@H]3[C@@H](c4ccc(C)cc4)OC4(C(=O)c5ccccc5C4=O)[C@H]3C2=O)cc1 | 10.8 | 97.7 | – |
| COc1cccc([C@H]2OC3(C(=O)c4ccccc4C3=O)[C@H]3C(=O)N(c4ccc(C)cc4)C(=O)[C@@H]23)c1 | 1.6 | 97.8 | – |
| CC(C)c1ccc([C@H]2OC3(C(=O)c4ccccc4C3=O)[C@H]3C(=O)N(c4ccc(F)cc4)C(=O)[C@@H]23)cc1 | 1.3 | 89.3 | – |
| COc1ccc([C@H]2OC3(C(=O)c4ccccc4C3=O)[C@H]3C(=O)N(c4ccccc4F)C(=O)[C@@H]23)cc1 | – | – | 0.25 |
| O=C1[C@H]2[C@@H](c3ccc4ccccc4c3)OC3(C(=O)c4ccccc4C3=O)[C@H]2C(=O)N1c1ccccc1Cl | – | – | 0 |
| O=C1[C@H]2[C@@H](c3ccccc3)OC3(C(=O)c4ccccc4C3=O)[C@H]2C(=O)N1c1ccc(Cl)cc1 | 2.06 | 91.5 | – |
| Cc1cccc([C@H]2OC3(C(=O)c4ccccc4C3=O)[C@H]3C(=O)N(c4ccccc4Cl)C(=O)[C@@H]23)c1 | 6.81 | 57.4 | – |
| Cc1ccc([C@H]2OC3(C(=O)c4ccccc4C3=O)[C@H]3C(=O)N(C(C)(C)C)C(=O)[C@@H]23)cc1 | – | – | 31 |
| CCOc1ccc(N2C(=O)[C@H]3[C@@H](c4ccccc4)OC4(C(=O)c5ccccc5C4=O)[C@H]3C2=O)cc1 | 32.3 | 82.3 | – |
| O=C1[C@H]2[C@@H](C3CCCCC3)OC3(C(=O)c4ccccc4C3=O)[C@H]2C(=O)N1c1ccccc1Cl | – | 55.6 | – |
| Cc1ccc([C@H]2OC3(C(=O)c4ccccc4C3=O)[C@H]3C(=O)N(C4CCCCC4)C(=O)[C@@H]23)cc1 | 1.29 | 69.5 | – |
| Cc1ccccc1[C@H]1OC2(C(=O)c3ccccc3C2=O)[C@H]2C(=O)N(c3ccccc3Cl)C(=O)[C@@H]12 | – | – | 30.7 |
| Cc1ccc([C@H]2OC3(C(=O)c4cccc(Br)c4C3=O)[C@H]3C(=O)N(c4ccccc4Cl)C(=O)[C@@H]23)cc1 (mixture of isomers) | 11.6 | 76 | – |
| CCc1ccc([C@H]2OC3(C(=O)c4ccccc4C3=O)[C@H]3C(=O)N(c4ccc(C)cc4)C(=O)[C@@H]23)cc1 | 0.67 | 95.9 | – |

| SMILES | EC50 [1] [µM] | Activity ([2]; filed as agonist) [%] | Activity [2] [%] |
| --- | --- | --- | --- |
| Cc1cc(C)cc(N2C(=O)[C@H]3[C@@H](c4ccccc4Cl)OC4(C(=O)c5ccccc5C4=O)[C@H]3C2=O)c1 | – | – | 7.14 |
| O=C1[C@H]2[C@@H](Cc3ccccc3)OC3(C(=O)c4ccccc4C3=O)[C@H]2C(=O)N1c1ccccc1Cl | – | – | 0 |
| Cc1ccc([C@H]2OC3(C(=O)c4ccccc4C3=O)[C@H]3C(=O)N(C4CCC4)C(=O)[C@@H]23)cc1 | – | – | 0 |
| O=C1[C@H]2[C@@H](C3CC3)OC3(C(=O)c4ccccc4C3=O)[C@H]2C(=O)N1c1ccccc1Cl | – | – | 0 |
| Cc1ccc(N2C(=O)[C@H]3[C@@H](c4ccccc4)OC4(C(=O)c5ccccc5C4=O)[C@H]3C2=O)cc1Cl | – | 80.3 | – |
| Cc1cccc([C@H]2OC3(C(=O)c4ccccc4C3=O)[C@H]3C(=O)N(c4cccc(C)c4)C(=O)[C@@H]23)c1 | – | 84.7 | – |
| CCc1ccccc1N1C(=O)[C@H]2[C@@H](c3ccccc3Cl)OC3(C(=O)c4ccccc4C3=O)[C@H]2C1=O | – | – | 20 |
| COc1cccc(N2C(=O)[C@H]3[C@@H](c4ccc(C)cc4)OC4(C(=O)c5ccccc5C4=O)[C@H]3C2=O)c1 | 0.96 | 84.6 | – |
| Cc1ccc([C@H]2OC3(C(=O)c4ccccc4C3=O)[C@H]3C(=O)N(c4ccccc4Cl)C(=O)[C@@H]23)cc1 | 0.17 | 93.6 | – |
| COc1cc(C)ccc1N1C(=O)[C@H]2[C@@H](c3cccc(C)c3)OC3(C(=O)c4ccccc4C3=O)[C@H]2C1=O | 5.96 | 103 | – |
| Cc1ccc([C@H]2OC3(C(=O)c4ccc(F)cc4C3=O)[C@H]3C(=O)N(c4ccccc4Cl)C(=O)[C@@H]23)cc1 (mixture of isomers) | 0.692 | 80.8 | – |
| Cc1ccc([C@H]2OC3(C(=O)c4ccccc4C3=O)[C@H]3C(=O)N(c4ccc(C)c(C)c4)C(=O)[C@@H]23)cc1 | 0.21 | 104 | – |
| Cc1ccc([C@H]2OC3(C(=O)c4ccc(C)cc4C3=O)[C@H]3C(=O)N(c4ccccc4Cl)C(=O)[C@@H]23)cc1 (mixture of isomers) | 0.3 | 98.1 | – |
| Cc1ccc([C@H]2OC3(C(=O)c4cccc(C)c4C3=O)[C@H]3C(=O)N(c4ccccc4Cl)C(=O)[C@@H]23)cc1 (mixture of isomers) | 1.08 | 59.3 | – |
| Cc1ccc([C@H]2OC3(C(=O)c4cccc(Cl)c4C3=O)[C@H]3C(=O)N(c4ccccc4Cl)C(=O)[C@@H]23)cc1 (mixture of isomers) | 0.301 | 88.5 | – |
| CCc1ccc(N2C(=O)[C@H]3[C@@H](c4ccc(Cl)cc4)OC4(C(=O)c5ccccc5C4=O)[C@H]3C2=O)cc1 | 0.43 | 102 | – |
| Cc1ccc([C@H]2OC3(C(=O)c4ccc(Cl)cc4C3=O)[C@H]3C(=O)N(c4ccccc4Cl)C(=O)[C@@H]23)cc1 (mixture of isomers) | 0.236 | 96.2 | – |
| O=C1[C@H]2[C@@H](c3ccc(-c4ccccc4)cc3)OC3(C(=O)c4ccccc4C3=O)[C@H]2C(=O)N1c1ccccc1Cl | – | – | 5.04 |
| CC(C)[C@H]1OC2(C(=O)c3ccccc3C2=O)[C@H]2C(=O)N(c3ccccc3Cl)C(=O)[C@@H]12 | – | – | 27.2 |
| O=C1[C@H]2[C@@H](CCc3ccccc3)OC3(C(=O)c4ccccc4C3=O)[C@H]2C(=O)N1c1ccccc1Cl | – | – | 32 |
| CC(C)=C[C@H]1OC2(C(=O)c3ccccc3C2=O)[C@H]2C(=O)N(c3ccccc3Cl)C(=O)[C@@H]12 | – | 44.7 | – |
| CC/C=C(\CCC)[C@H]1OC2(C(=O)c3ccccc3C2=O)[C@H]2C(=O)N(c3ccccc3Cl)C(=O)[C@@H]12 | – | 44.5 | – |
